Patent publication US6906095B2, “Indolylalkylidenehydrazine-carboximidamide derivatives as 5-hydroxytryptamine-6 ligands” (Wyeth, priority 2002, dated 2005)

The compounds below were run against T1, human cloned 5-HT6 receptors (Homo sapiens, UniProt P50406) (assay: 5-HT6 binding affinity, [3H]-LSD displacement in membranes of Hela cells). Conditions: not given.
T1 construct: expressed in transfected cells; host or cells: Hela cells
Experimental: The affinity of test compounds for the serotonin 5-HT6 receptor is evaluated in the following manner. Cultured Hela cells expressing human cloned 5-HT6 receptors are harvested and centrifuged at low speed (1,000×g) for 10.0 min to remove the culture media. The harvested cells are suspended in half volume of fresh physiological phosphate buffered saline solution and recentrifuged at the same speed. This operation is repeated. The collected cells are then homogenized in ten volumes of 50 mM Tris.HCl (pH 7.4) and 0.5 mM EDTA. The homogenate is centrifuged at 40,000×g for 30.0 min and the precipitate is collected. The obtained pellet is resuspended in 10 volumes of Tris.HCl buffer and recentrifuged at the same speed. The final pellet is suspended in a small volume of Tris.HCl buffer and the tissue protein content is determined in aliquots of 10-25 μl volumes. Bovine Serum Albumin is used as the standard in the protein determination according to the method described in Lowry et al., J. Biol. Chem., 193:265 (1951). The volume of the suspended cell membranes is adjusted to give a tissue protein concentration of 1.0 mg/ml of suspension. The prepared membrane suspension (10 times concentrated) is aliquoted in 1.0 ml volumes and stored at −70° C. until used in subsequent binding experiments.
The reaction is allowed to proceed in the dark for 120 min at room temperature, at which time, the bound ligand-receptor complex is filtered off on a 96 well unifilter with a Packard Filtermate® 196 Harvester. The bound complex caught on the filter disk is allowed to air dry and the radioactivity is measured in a Packard TopCount® equipped with six photomultiplier detectors, after the addition of 40.0 μl Microscint®-20 scintillant to each shallow well. The unifilter plate is heat-sealed and counted in a PackardTopCount® with a tritium efficiency of 31.0%.
Specific binding to the 5-HT6 receptor is defined as the total radioactivity bound less the amount bound in the presence of 10.0 μM unlabeled methiothepin. Binding in the presence of varying concentrations of test compound is expressed as a percentage of specific binding in the absence of test compound. The results are plotted as logit % bound versus log concentration of test compound. Nonlinear regression analysis of data points with a computer assisted program Prism® yields both the IC50 and the Ki values of test compounds with 95% confidence limits.
The amount of displacement by the test compound is given in percent (%) inhibition and is derived from the following equation: [formula] where B0 is the amount of CPM bound in the presence of the testing agent. NSB represents the CPM bound in the presence of a saturating concentration of a displacer and TB represents the total amount of CPM bound at zero (0) concentration of test compound.
Alternatively, a linear regression line of decline of data points is plotted, from which the IC50 value can be read off and the Ki value determined by solving the following equation: [formula] where L is the concentration of the radioactive ligand used and KD is the dissociation constant of the ligand for the receptor, both expressed in nM.

T1 sequence (P50406 whole entry): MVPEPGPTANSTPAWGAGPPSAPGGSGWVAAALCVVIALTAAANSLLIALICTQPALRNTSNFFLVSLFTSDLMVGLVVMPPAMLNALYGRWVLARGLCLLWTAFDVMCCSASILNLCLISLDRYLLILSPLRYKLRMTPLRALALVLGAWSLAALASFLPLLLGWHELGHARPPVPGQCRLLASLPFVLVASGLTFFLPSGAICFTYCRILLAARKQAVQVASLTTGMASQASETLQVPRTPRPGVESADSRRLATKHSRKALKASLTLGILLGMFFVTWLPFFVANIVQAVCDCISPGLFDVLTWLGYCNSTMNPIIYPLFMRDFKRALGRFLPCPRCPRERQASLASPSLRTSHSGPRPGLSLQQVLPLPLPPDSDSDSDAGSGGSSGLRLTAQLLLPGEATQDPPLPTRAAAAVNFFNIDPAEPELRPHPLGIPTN

Point of comparison: `CC(=NNC(=N)N)c1cn(S(=O)(=O)c2cccc3nonc23)c2ccccc12` [Example 25], Ki 15 nM. Against it:
- CC(=NNC(=N)N)c1cn(S(=O)(=O)c2ccc(Br)s2)c2ccccc12 [Example 33, 2-(1-{1-[(5-bromothien-2-yl)sulfonyl]-1H-indol-3-yl}ethylidene)hydrazinecarboximidamide] — within 1.5-fold, 19 nM
- COc1ccc(S(=O)(=O)n2cc(C(C)=NNC(=N)N)c3ccccc32)cc1OC [Example 69, 2-(1-{1-[(3,4-dimethoxyphenyl)sulfonyl]-1H-indol-3-yl}ethylidene)hydrazinecarboximidamide] — within 1.5-fold, 12 nM
- CCC(=NNC(=N)N)c1cn(S(=O)(=O)c2ccc3ccccc3c2)c2ccc(Cl)cc12 [Example 122, 2-{1-[5-chloro-1-(2-naphthylsulfonyl)-1H-indol-3-yl]propylidene}hydrazinecarboximidamide] — 6.7-fold higher, 101 nM
- CC(=NNC(=N)N)c1cn(S(=O)(=O)c2ccc(N)cc2)c2ccccc12 [Example 23, 2-(1-{1-[(4-aminophenyl)sulfonyl]-1H-indol-3-yl}ethylidene)hydrazinecarboximidamide] — 7.5-fold lower, 2 nM
- CC(=NNC(=N)N)c1cn(S(=O)(=O)c2ccccc2Br)c2ccccc12 [Example 31, 2-(1-{1-[(2-bromophenyl)sulfonyl]-1H-indol-3-yl}ethylidene)hydrazinecarboximidamide] — within 1.5-fold, 13 nM

Same assay, conditions: test compound dose 10 nM; [3H]-LSD 3.0 nM

Point of comparison: `CC(=NNC(=N)N)c1cn(S(=O)(=O)c2ccccc2)c2ccc(I)cc12` [Example 17, 2-{1-[5-iodo-1-(phenylsulfonyl)-1H-indol-3-yl]ethylidene}hydrazinecarboximidamide], inhibition at 0.01 µM 52%. Against it:
- CCCCS(=O)(=O)n1cc(C(=NNC(=N)N)C2CC2)c2cc(Cl)ccc21 [Example 77, 2-[[1-(butylsulfonyl)-5-chloro-1H-indol-3-yl](cyclopropyl)methylidene]hydrazinecarboximidamide] — lower, 44.3%

Same assay, conditions: test compound dose 100 nM; [3H]-LSD 3.0 nM

Point of comparison: `CC(=NNC(=N)N)c1cn(S(=O)(=O)c2ccccc2Br)c2ccccc12` [Example 31, 2-(1-{1-[(2-bromophenyl)sulfonyl]-1H-indol-3-yl}ethylidene)hydrazinecarboximidamide], inhibition at 0.1 µM 83.3%. Against it:
- CC(=NNC(=N)N)c1cn(S(=O)(=O)c2cc(Br)c(Br)s2)c2ccccc12 [Example 39, 2-(1-{1-[(4,5-dibromothien-2-yl)sulfonyl]-1H-indol-3-yl}ethylidene)hydrazinecarboximidamide] — lower, 62.1%
- CC(=NNC(=N)N)c1cn(S(=O)(=O)c2ccc(Br)s2)c2ccccc12 [Example 33, 2-(1-{1-[(5-bromothien-2-yl)sulfonyl]-1H-indol-3-yl}ethylidene)hydrazinecarboximidamide] — lower, 76.4%
- COc1ccc(S(=O)(=O)n2cc(C(=NNC(=N)N)C3CC3)c3ccc(F)cc32)cc1OC [Example 117, 2-(cyclopropyl{1-[(3,4-dimethoxyphenyl)sulfonyl]-6-fluoro-1H-indol-3-yl}methylidene)hydrazinecarboximidamide] — lower, 78.2%
- COc1ccc(S(=O)(=O)n2cc(C(C)=NNC(=N)N)c3ccccc32)cc1OC [Example 69, 2-(1-{1-[(3,4-dimethoxyphenyl)sulfonyl]-1H-indol-3-yl}ethylidene)hydrazinecarboximidamide] — lower, 72.4%
- CC(=NNC(=N)N)c1cn(S(=O)(=O)c2cc(Cl)ccc2Cl)c2ccccc12 [Example 40, 2-(1-{1-[(2,5-dichlorophenyl)sulfonyl]-1H-indol-3-yl}ethylidene)hydrazinecarboximidamide] — lower, 33.3%
- COc1ccc(S(=O)(=O)n2cc(C(=NNC(=N)N)C3CC3)c3cc(Cl)ccc32)cc1 [Example 80, 2-[{5-chloro-1-[(4-methoxyphenyl)sulfonyl]-1H-indol-3-yl}(cyclopropyl)methylidene]hydrazinecarboximidamide] — lower, 74%
- CC(=NNC(=N)N)c1cn(S(=O)(=O)c2cc([N+](=O)[O-])ccc2C)c2ccccc12 [Example 46, 2-(1-{1-[(2-methyl-5-nitrophenyl)sulfonyl]-1H-indol-3-yl}ethylidene)hydrazinecarboximidamide] — lower, 41%
- CC(=NNC(=N)N)c1cn(S(=O)(=O)c2ccccc2)c2ccc(Cl)cc12 [Example 84, 2-{1-[5-chloro-1-(phenylsulfonyl)-1H-indol-3-yl]ethylidene}hydrazinecarboximidamide] — lower, 81.7%
- CC(=NNC(=N)N)c1cn(C(=O)Nc2ccccc2)c2ccccc12 [Example 129, 3-(1-{2-[amino(imino)methyl]hydrazono}ethyl)-N-phenyl-1H-indole-1-carboxamide] — lower, 23.4%
- CCCCC(=NNC(=N)N)c1cn(S(=O)(=O)c2ccccc2)c2ccccc12 [Example 67, 2-{1-[1-(phenylsulfonyl)-1H-indol-3-yl]pentylidene}hydrazinecarboximidamide] — lower, 66.3%
- CC(=NNC(=N)N)c1cn(S(=O)(=O)c2cccc3nonc23)c2ccccc12 [Example 25] — lower, 79.6%
- N=C(N)NN=C(c1cn(S(=O)(=O)c2ccc3ccccc3c2)c2cc(F)ccc12)C1CC1 [Example 111, 2-{cyclopropyl[6-fluoro-1-(2-naphthylsulfonyl)-1H-indol-3-yl]methylidene}hydrazinecarboximidamide] — lower, 27.6%
- CC(=NNC(=N)N)c1cn(S(=O)(=O)c2c(Cl)sc(Cl)c2Br)c2ccccc12 [Example 27, 2-(1-{1-[(4-bromo-2,5-dichlorothien-3-yl)sulfonyl]-1H-indol-3-yl}ethylidene)hydrazinecarboximidamide] — lower, 33.8%
- CC(=NNC(=N)N)c1cn(S(=O)(=O)c2cc(Cl)c(Cl)s2)c2ccccc12 [Example 42, 2-(1-{1-[(4,5-dichlorothien-2-yl)sulfonyl]-1H-indol-3-yl}ethylidene)hydrazinecarboximidamide] — lower, 46.3%
- CC(=NNC(=N)N)c1cn(S(=O)(=O)c2ccc(OC(F)(F)F)cc2)c2ccccc12 [Example 54, 2-[1-(1-{[4-(trifluoromethoxy)phenyl]sulfonyl}-1H-indol-3-yl)ethylidene]hydrazinecarboximidamide] — lower, 26.2%
- CC(=NNC(=N)N)c1cn(S(=O)(=O)c2c(C)noc2C)c2ccccc12 [Example 43, 2-(1-{1-[(3,5-dimethylisoxazol-4-yl)sulfonyl]-1H-indol-3-yl}ethylidene)hydrazinecarboximidamide] — lower, 68.9%
- CC(=NNC(=N)N)c1cn(C(=O)Oc2ccccc2)c2ccccc12 [Example 128, phenyl 3-(1-{2-[amino(imino)methyl]hydrazono}ethyl)-1H-indole-1-carboxylate] — lower, 23.9%
- CC(=NNC(=N)N)c1cn(S(=O)(=O)c2ccc(N)cc2)c2ccccc12 [Example 23, 2-(1-{1-[(4-aminophenyl)sulfonyl]-1H-indol-3-yl}ethylidene)hydrazinecarboximidamide] — higher, 92.9%

Same assay, conditions: test compound dose 1000 nM; [3H]-LSD 3.0 nM; read-out: % Inhibition

Point of comparison: `CC(=NNC(=N)N)c1c(-c2ccc3ccccc3c2)n(S(=O)(=O)c2ccccc2)c2ccccc12` [Example 14, 2-{1-[2-(2-naphthyl)-1-(phenylsulfonyl)-1H-indol-3-yl]ethylidene}hydrazinecarboximidamide], inhibition at 1 µM 85.4%. Against it:
- COc1ccc(S(=O)(=O)n2c(-c3ccc(Cl)cc3)c(C(C)=NNC(=N)N)c3ccccc32)cc1OC [Example 98, 2-(1-{2-(4-chlorophenyl)-1-[(3,4-dimethoxyphenyl)sulfonyl]-1H-indol-3-yl}ethylidene)hydrazinecarboximidamide] — lower, 53.3%
- COc1ccc(S(=O)(=O)n2cc(C(C)=NNC(=N)N)c3cc(Cl)ccc32)cc1OC [Example 87, 2-(1-{5-chloro-1-[(3,4-dimethoxyphenyl)sulfonyl]-1H-indol-3-yl}ethylidene)hydrazinecarboximidamide] — higher, 88.9%
- CCCCC(=NNC(=N)N)c1cn(S(=O)(=O)c2ccc(OC)c(OC)c2)c2cc(F)ccc12 [Example 116, 2-(1-{1-[(3,4-dimethoxyphenyl)sulfonyl]-6-fluoro-1H-indol-3-yl}pentylidene)hydrazinecarboximidamide] — lower, 73.5%
- CC(C)C(=NNC(=N)N)c1cn(S(=O)(=O)c2ccccc2)c2ccccc12 [Example 5, 2-{2-methyl-1-[1-(phenylsulfonyl)-1H-indol-3-yl]propylidene}hydrazinecarboximidamide] — higher, 91.5%
- CC(=NNC(=N)N)c1c(-c2ccc(F)c(F)c2)n(S(=O)(=O)c2ccccc2)c2ccccc12 [Example 13, 2-{1-[2-(3,4-difluorophenyl)-1-(phenylsulfonyl)-1H-indol-3-yl]ethylidene}hydrazinecarboximidamide] — higher, 86%
- COc1ccc(S(=O)(=O)n2cc(C(C)=NNC(=N)N)c3ccccc32)cc1 [Example 61, 2-(1-{1-[(4-methoxyphenyl)sulfonyl]-1H-indol-3-yl}ethylidene)hydrazinecarboximidamide] — lower, 83.6%
- N=C(N)NN=C(c1c(-c2ccc(Cl)cc2)n(S(=O)(=O)c2ccc3ccccc3c2)c2ccccc12)C1CC1 [Example 94, 2-[[2-(4-chlorophenyl)-1-(2-naphthylsulfonyl)-1H-indol-3-yl](cyclopropyl)methylidene]hydrazinecarboximidamide] — lower, 27.9%
